Assay [1] relates to MOLM-13 cells. As to the kind of experiment: MOLM-13 Cell Proliferation Assay (indicator of DHODH inhibition). The note with it: Homo sapiens, 72 Hours of culture, CellTiter-Glo, no uridine. Type of assay: cell-based. The gist of the method: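 Proliferation readout via CellTiter-Glo luminescence after 72 h compound treatment (37 °C, 5% CO2, 0.5% DMSO) of MOLM-13 cells seeded at 10^4 per well in RPMI 1640/10% FBS, used as a DHODH-inhibition indicator since these cells rely on de novo pyrimidine synthesis.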
(In ATP-based viability assays light output follows the ATP content of the culture.)

Assay [2] deals with MOLM-13 cells. As to the kind of experiment: MOLM-13 Uridine Rescue Assay. The format is cell-based. As to conditions: Homo sapiens; MOLM-13 cell proliferation with 100 μM Uridine added, 72 Hours of culture. As to the method: The following assay was conducted to measure proliferation of MOLM-13 cells in the presence of each compound studied. This assay was included as an indicator of DHODH inhibition, as growth of MOLM-13 cells is known to depend on synthesis of pyrimidines using the de novo pathway, which can be blocked by inhibition of DHODH. • 1. MOLM-13 cells were cultured in RPMI 1640 medium+10% Fetal Bovine Serum (FBS). Only low passage cells (<20) were used for the compound tests • 2. On day 1, Log-phase growing Molm-13 Cells were counted and diluted to 10^5 cells/mL in RPMI 1640 medium+10% FBS • 3. 100 μL of diluted MOLM-13 cells in 96 well white plates were seeded, for a final density of 10^4 cells/well. • 4. 0.5 μL of pre-diluted 200× compounds or DMSO control was added to each well. The final DMSO concentration was 0.5%. • 5. After 72 Hours of culture at 37° C., 5% CO2, the plates were taken out and cooled to RT, then 50 μL CellTiter-Glo® (Promega) was added, and the composition was mixed at RT for 10 minutes. • 6. The plates were then read by ViewLux (Speed-fast, Gain-High, Bining-1X, 5 seconds).
Several compounds were also tested in a Uridine rescue assay. In the Uridine rescue assay, using the procedure in Example 1 above, an additional plate of MOLM-13 cell cultures was prepared, to which 100 μM of Uridine was added in step 3 of the process.

Counter-ions that a name gives are not always drawn.

A word on the IC50: it is the concentration that gives 50% inhibition. `Cc1ncnc(N2CCc3c([nH]c4ccc(Cl)cc34)C2c2cnc(N3CCOCC3)nc2)n1` (centres unmarked) [Compound 294, 6-chloro-2-(4-methyl-1,3,5-triazin-2-yl)-1-[2-(morpholin-4-yl)pyrimidin-5-yl]-2,3,4,9-tetrahydro-1H-pyrido[3,4-b]indole]: the IC50 in the assay on MOLM-13 cells [1] stood at 20.8 nM; in the assay with MOLM-13 cells [2], 12.4 µM.

Turning to `FC(F)(F)c1ncnc(N2CCc3c([nH]c4ccc(Cl)cc34)[C@@H]2c2ccc(N3CCOCC3)nc2)n1` [Compound 462, (1S)-6-chloro-1-[6-(morpholin-4-yl)pyridin-3-yl]-2-[4-(trifluoromethyl)-1,3,5-triazin-2-yl]-2,3,4,9-tetrahydro-1H-pyrido[3,4-b]indole], the figures for the IC50 in the assay with MOLM-13 cells [1] and in the assay with MOLM-13 cells [2] were 1.3 nM and 13.6 µM, respectively.

`Cc1nc(C)nc(N2CCc3c([nH]c4ccc(Cl)cc34)C2c2ccc(C)c(F)c2F)n1` (centres unmarked) [Compound 253, 6-chloro-1-(2,3-difluoro-4-methylphenyl)-2-(4,6-dimethyl-1,3,5-triazin-2-yl)-2,3,4,9-tetrahydro-1H-pyrido[3,4-b]indole]: the IC50 in the assay on MOLM-13 cells [1] worked out at 1.9 nM; in the assay with MOLM-13 cells [2], 6.56 µM.

As to `FC(F)(F)c1nc(N2CCc3c([nH]c4ccc(Cl)cc34)[C@@H]2c2cnc(N3CCOCC3)nc2)nc(C(F)(F)F)n1` [Compound 406, (1S)-2-[4,6-bis(trifluoromethyl)-1,3,5-triazin-2-yl]-6-chloro-1-[2-(morpholin-4-yl)pyrimidin-5-yl]-2,3,4,9-tetrahydro-1H-pyrido[3,4-b]indole], the IC50 in the assay on MOLM-13 cells [1] was 0.3 nM; in the assay with MOLM-13 cells [2] it was 8.35 µM.

With `Cc1ccc(C2c3[nH]c4cc(N)c(Cl)cc4c3CCN2c2nccc(C(F)(F)F)n2)c(F)c1F` (centres unmarked) [Compound 282, 6-chloro-1-(2,3-difluoro-4-methylphenyl)-2-[4-(trifluoromethyl)pyrimidin-2-yl]-2,3,4,9-tetrahydro-1H-pyrido[3,4-b]indol-7-amine], the values for the IC50 with MOLM-13 cells [1] and with MOLM-13 cells [2] were 23.2 nM and 11.5 µM, respectively.

As for `Cc1ccc(C2c3[nH]c4ccc(N(C)C)cc4c3CCN2c2nccc(C(F)(F)F)n2)c(F)c1F` (centres unmarked) [Compound 330, 1-(2,3-difluoro-4-methylphenyl)-N,N-dimethyl-2-[4-(trifluoromethyl)pyrimidin-2-yl]-2,3,4,9-tetrahydro-1H-pyrido[3,4-b]indol-6-amine], the IC50 with MOLM-13 cells [1] amounted to 11.3 nM; with MOLM-13 cells [2], 11.5 µM.

`Cc1nc(C)nc(N2CCc3c([nH]c4cc(N)c(Cl)cc34)C2c2cnc(N3CCOCC3)nc2)n1` (centres unmarked) [Compound 320, 6-chloro-2-(4,6-dimethyl-1,3,5-triazin-2-yl)-1-[2-(morpholin-4-yl)pyrimidin-5-yl]-2,3,4,9-tetrahydro-1H-pyrido[3,4-b]indol-7-amine]: the IC50 in the assay with MOLM-13 cells [1] was 11.7 nM; with MOLM-13 cells [2] it was 9.81 µM.

Turning to `Cc1ccc(C2c3[nH]c4ccc(Cl)cc4c3CCN2c2nccc(C(F)(F)F)n2)cc1` (centres unmarked) [Compound 343, 6-chloro-1-(4-methylphenyl)-2-[4-(trifluoromethyl)pyrimidin-2-yl]-2,3,4,9-tetrahydro-1H-pyrido[3,4-b]indole], the IC50 in the assay with MOLM-13 cells [1] is 3.3 nM; in the assay on MOLM-13 cells [2] it was 19.8 µM.

For `Cc1cc(C(F)(F)F)nc(N2CCc3c([nH]c4ccc(Cl)cc34)C2c2cnc(N3CCOCC3)nc2)n1` (centres unmarked) [Compound 374, 6-chloro-2-[4-methyl-6-(trifluoromethyl)pyrimidin-2-yl]-1-[2-(morpholin-4-yl)pyrimidin-5-yl]-2,3,4,9-tetrahydro-1H-pyrido[3,4-b]indole], the IC50 in the assay on MOLM-13 cells [1] worked out at 1.6 nM; in the assay on MOLM-13 cells [2] it was 8.84 µM.

Take `Cc1ccc(C2c3[nH]c4ccc([N+](=O)[O-])cc4c3CCN2c2nccc(C(F)(F)F)n2)c(F)c1F` (centres unmarked) [Compound 305, 1-(2,3-difluoro-4-methylphenyl)-6-nitro-2-[4-(trifluoromethyl)pyrimidin-2-yl]-2,3,4,9-tetrahydro-1H-pyrido[3,4-b]indole]: the IC50 in the assay on MOLM-13 cells [1] came out at 1 nM; in the assay with MOLM-13 cells [2], 11.6 µM.

`FC(F)(F)c1nc(N2CCc3c([nH]c4ccc(Cl)cc34)C2c2cnc(N3CCOCC3)nc2)nc(C(F)(F)F)n1` (centres unmarked) [Compound 388, 2-[4,6-bis(trifluoromethyl)-1,3,5-triazin-2-yl]-6-chloro-1-[2-(morpholin-4-yl)pyrimidin-5-yl]-2,3,4,9-tetrahydro-1H-pyrido[3,4-b]indole]: the values for the IC50 in the assay with MOLM-13 cells [1] and in the assay with MOLM-13 cells [2] were 0.3 nM and 6.64 µM, respectively.

As to `Cc1nc(C)nc(N2CCc3c([nH]c4c(O)cc(Cl)cc34)C2c2ccc(C)c(F)c2F)n1` (centres unmarked) [Compound 348, 6-chloro-1-(2,3-difluoro-4-methylphenyl)-2-(4,6-dimethyl-1,3,5-triazin-2-yl)-2,3,4,9-tetrahydro-1H-pyrido[3,4-b]indol-8-ol], the IC50 turned out to be 1.2 nM in the assay on MOLM-13 cells [1] and 2 µM with MOLM-13 cells [2].

With `Cc1ccc(C2c3[nH]c4ccc(Cl)cc4c3CCN2c2nccc(C#N)n2)c(F)c1F` (centres unmarked) [Compound 363, 2-[6-chloro-1-(2,3-difluoro-4-methylphenyl)-1,3,4,9-tetrahydro-2H-pyrido[3,4-b]indol-2-yl]pyrimidine-4-carbonitrile], the values for the IC50 in the assay with MOLM-13 cells [1] and with MOLM-13 cells [2] were 3.2 nM and 10.3 µM, respectively.

In the case of `Nc1cc(Cl)cc2c3c([nH]c12)C(c1cnc(N2CCOCC2)nc1)N(c1nccc(C(F)(F)F)n1)CC3` (centres unmarked) [Compound 310, 6-chloro-1-[2-(morpholin-4-yl)pyrimidin-5-yl]-2-[4-(trifluoromethyl)pyrimidin-2-yl]-2,3,4,9-tetrahydro-1H-pyrido[3,4-b]indol-8-amine], the IC50 in the assay with MOLM-13 cells [1] worked out at 1.1 nM; with MOLM-13 cells [2] it was 14.5 µM.

Regarding `Cc1ccc([C@H]2c3[nH]c4ccc(Cl)cc4c3CCN2c2nccc(C(F)(F)F)n2)c(F)c1F` [Compound 233, (1S)-6-chloro-1-(2,3-difluoro-4-methylphenyl)-2-[4-(trifluoromethyl)pyrimidin-2-yl]-2,3,4,9-tetrahydro-1H-pyrido[3,4-b]indole], the IC50 with MOLM-13 cells [1] amounted to 0.4 nM; in the assay with MOLM-13 cells [2] it was 12.4 µM.

With `FC(F)(F)c1cc(C(F)(F)F)nc(N2CCc3c([nH]c4ccc(Cl)cc34)[C@@H]2c2cnc(N3CCOCC3)nc2)n1` [Compound 410, (1S)-2-[4,6-bis(trifluoromethyl)pyrimidin-2-yl]-6-chloro-1-[2-(morpholin-4-yl)pyrimidin-5-yl]-2,3,4,9-tetrahydro-1H-pyrido[3,4-b]indole], the IC50 stood at 0.3 nM in the assay on MOLM-13 cells [1] and 14.2 µM in the assay on MOLM-13 cells [2].

In the case of `Cc1nc(C)nc(N2CCc3c([nH]c4ccc(Cl)cc34)[C@@H]2c2ccc(C)c(F)c2F)n1` [Compound 347, (1S)-6-chloro-1-(2,3-difluoro-4-methylphenyl)-2-(4,6-dimethyl-1,3,5-triazin-2-yl)-2,3,4,9-tetrahydro-1H-pyrido[3,4-b]indole], the IC50 in the assay with MOLM-13 cells [1] came out at 1.1 nM; in the assay with MOLM-13 cells [2] it was 2.77 µM.

Take `N#Cc1ccnc(N2CCc3c([nH]c4ccc(Cl)cc34)C2c2ccc(N3CCOCC3)nc2)n1` (centres unmarked) [Compound 356, 2-{6-chloro-1-[6-(morpholin-4-yl)pyridin-3-yl]-1,3,4,9-tetrahydro-2H-pyrido[3,4-b]indol-2-yl}pyrimidine-4-carbonitrile]: the values for the half-inhibitory concentration (IC50) with MOLM-13 cells [1] and in the assay on MOLM-13 cells [2] were 4.6 nM and 6.96 µM, respectively.

Turning to `Cc1ccc(C2c3[nH]c4c(O)cc(Cl)cc4c3CCN2c2nccc(C(F)(F)F)n2)c(F)c1F` (centres unmarked) [Compound 220, 6-chloro-1-(2,3-difluoro-4-methylphenyl)-2-[4-(trifluoromethyl)pyrimidin-2-yl]-2,3,4,9-tetrahydro-1H-pyrido[3,4-b]indol-8-ol], the IC50 in the assay on MOLM-13 cells [1] came out at 1.1 nM; in the assay with MOLM-13 cells [2], 6.7 µM.

Consider `Fc1cc2[nH]c3c(c2cc1Cl)CCN(c1nc(C(F)(F)F)cc(C(F)(F)F)n1)C3c1cccc(F)c1F` (centres unmarked) [Compound 157, 2-[4,6-bis(trifluoromethyl)pyrimidin-2-yl]-6-chloro-1-(2,3-difluorophenyl)-7-fluoro-2,3,4,9-tetrahydro-1H-pyrido[3,4-b]indole], for which the figures for the 50% inhibitory concentration (IC50) in the assay with MOLM-13 cells [1] and in the assay on MOLM-13 cells [2] were 0.6 nM and 14.9 µM, respectively.

Turning to `FC(F)(F)c1cc(C(F)(F)F)nc(N2CCc3c([nH]c4ccc(Cl)cc34)C2c2cnc(N3CCOCC3)nc2)n1` (centres unmarked) [Compound 358, 2-[4,6-bis(trifluoromethyl)pyrimidin-2-yl]-6-chloro-1-[2-(morpholin-4-yl)pyrimidin-5-yl]-2,3,4,9-tetrahydro-1H-pyrido[3,4-b]indole formate (1:1)], the half-inhibitory concentration (IC50) with MOLM-13 cells [1] amounted to 0.8 nM; with MOLM-13 cells [2], 12.3 µM.

As for `FC(F)(F)c1ccnc(N2CCc3c([nH]c4ccc(-n5nccn5)cc34)C2c2cnc(N3CCOCC3)nc2)n1` (centres unmarked) [Compound 288, 1-[2-(morpholin-4-yl)pyrimidin-5-yl]-6-(2H-1,2,3-triazol-2-yl)-2-[4-(trifluoromethyl)pyrimidin-2-yl]-2,3,4,9-tetrahydro-1H-pyrido[3,4-b]indole], the IC50 was 4.6 nM in the assay on MOLM-13 cells [1] and 11.4 µM in the assay on MOLM-13 cells [2].
